System: VA-ES-BJ tumor spheroid viability
Experiment: Anticancer human tumor VA-ES-BJ cell line growth inhibition;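 also: spheroids exposed to compounds for seven days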;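 as to viability, T/C: percent of DMSO vehicle control viability so 100% = untreated growth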
Settings: spheroids with HUVEC and MSC; for IC50: curve of first compound; for viability, T/C: stronger effect = lower value
Text: Multicellular complex tumor spheroid response to DNA repair inhibitors in combination with DNA-damaging drugs
This study explores the anticancer activities of DNA-damaging drugs and inhibitors of DNA damage repair, both as single agents and in combinations. Complex tumor spheroids comprised of malignant cells, endothelial cells and mesenchymal stem cells served as an in vitro model for human solid tumors. This model system incorporates physiologically relevant features and patient-derived or established malignant cell lines with clinically relevant genetic alterations from many tumor types. Twenty-six patient-derived or established malignant cell lines were evaluated representing sarcoma, melanoma, small cell lung cancer (SCLC), non-small cell lung cancer (NSCLC), as well as bladder, ovarian and pancreatic cancers. The concentration ranges selected for each drug and investigational agent were based upon clinically achievable concentrations if the clinical Cmax of the agent was known.
Compounds. The drugs and compounds olaparib (NSC753686), talazoparib (NSC767125), berzosertib (NSC777718), elimusertib (NSC800525), nedisertib (NSC802822), VX-984 (NSC792969), AZD-1390 (NSC803789), temozolomide (NSC362856), topotecan (NSC609699), trabectedin (NSC813783), staurosporine (NSC755774), and gemcitabine (NSC613327) were obtained from the National Cancer Institute (NCI) Developmental Therapeutics Program Chemical Repository. The FDA-approved anticancer drug set is available from the Developmental Therapeutics Program at https://dtp.cancer.gov/organization/dscb/obtaining/available_plates.htm. […] The stock solutions were prepared in dimethyl sulfoxide (DMSO, Sigma-Aldrich, St. Louis, MO, cat. D2650) at 400-fold the tested concentration and stored at -70 degrees C. Prior to their use, the stock solutions were diluted in fresh medium and the final DMSO concentration in the assay was 0.25% (v/v). All drugs and investigational agents were tested over a range starting from a high concentration at or near the clinical Cmax and decreasing in half-log increments. If the clinical Cmax for an agent had not been determined, the highest concentration tested was 10 microM.
Cell Lines. The patient-derived cancer cell (PDC) lines: 156681-154-R-J1-PDC, 283228-195-R-J1-PDC, 287954-098-R-J1-PDC, 292921-168-R-J2-PDC, 349418-098-R-PDC, 425362-245-T-J1-PDC, 556581-035-R-J1-PDC, and BL0293-F563-PDC were received from the NCI Patient-Derived Models Repository (PDMR, https://pdmr.cancer.gov). The established cell lines HS-SY-2 (RRID:CVCL_8719), MPNST, and SYO-1 (RRID:CVCL_7146) were obtained from the Sloan Kettering Institute. The alveolar soft parts sarcoma cell line ASPS-1 (RRID:CVCL_S738) was established at the NCI and grown from internal seed stocks. The following established cell lines were purchased from the American Type Culture Collection (ATCC, Manassas, VA): G-401 (ATCC, cat. CRL-1441, RRID:CVCL_0270), SW982 (ATCC, cat. HTB-93, RRID:CVCL_1734), VA-ES-BJ (ATCC, cat. CRL-2138, RRID:CVCL_1785), NCI-H719 (ATCC, cat. CRL-5837, RRID:CVCL_1582), NCI-H196 (ATCC, cat. CRL-5823, RRID:CVCL_1509), NCI-H841 (ATCC, cat. CRL-5845, RRID:CVCL_1595), NCI-H1618 (ATCC, cat. CRL-5879, RRID:CVCL_1480), NCI-H1876 (ATCC, cat. CRL-5902, RRID:CVCL_1503), DMS 114 (ATCC, cat. CRL-2066; RRID:CVCL_1174), NCI-H211 (ATCC, cat. CRL-5824; RRID:CVCL_1529), and SW 1271 (ATCC, cat. CRL-2177, RRID:CVCL_1716). The small cell lung cancer cell line COR-L88 was purchased from Sigma-Aldrich (cat. 92031917-1VL, RRID:CVCL_1141). The non-small cell lung cancer cell lines NCI-H226 (RRID:CVCL_1544) and NCI-H322M (RRID:CVCL_1557) were established at the NCI and grown from internal seed stocks. Pooled donor human umbilical vein endothelial cells (HUVEC, Lonza, cat. CC-2519) and human mesenchymal stem cells (hMSC, Lonza, cat. PT-2501) were purchased from Lonza (Walkersville, MD).
Cell Culture. All cells were maintained in an incubator at 37 degrees C and 5% CO2 with 95% humidity. […]

**Q.** What does the source list for `Cc1sc2c(c1C)C(c1ccc(Cl)cc1)=NC(CC(=O)Nc1ccc(O)cc1)c1nnc(C)n1-2` (stereo not given) + Cn1nnc2c(C(N)=O)ncn2c1=O?
**A.** IC50 (second compound 1 µM): 103 nM; IC50 (second compound 3.16 µM): 93.7 nM; IC50 (second compound 10 µM): 83.1 nM; IC50 (second compound 31.6 µM): 80.6 nM; IC50 (second compound 100 µM): 68.6 nM; viability, T/C (second compound 1 µM, first compound 0.00949 µM): 83.5%; viability, T/C (second compound 1 µM, first compound 0.03 µM): 69%; viability, T/C (second compound 1 µM, first compound 0.0949 µM): 51.6%; viability, T/C (second compound 1 µM, first compound 0.3 µM): 33.5%; viability, T/C (second compound 1 µM, first compound 0.949 µM): 25.9%; viability, T/C (second compound 1 µM, first compound 3 µM): 17.1%; viability, T/C (second compound 3.16 µM, first compound 0.00949 µM): 81.3%; viability, T/C (second compound 3.16 µM, first compound 0.03 µM): 68.3%; viability, T/C (second compound 3.16 µM, first compound 0.0949 µM): 50.7%; viability, T/C (second compound 3.16 µM, first compound 0.3 µM): 31.1%; viability, T/C (second compound 3.16 µM, first compound 0.949 µM): 19.9%; viability, T/C (second compound 3.16 µM, first compound 3 µM): 17.7%; viability, T/C (second compound 10 µM, first compound 0.00949 µM): 81.2%; viability, T/C (second compound 10 µM, first compound 0.03 µM): 65.2%; viability, T/C (second compound 10 µM, first compound 0.0949 µM): 49.1%; viability, T/C (second compound 10 µM, first compound 0.3 µM): 30.8%; viability, T/C (second compound 10 µM, first compound 0.949 µM): 24.8%; viability, T/C (second compound 10 µM, first compound 3 µM): 15.8%; viability, T/C (second compound 31.6 µM, first compound 0.00949 µM): 81.1%; viability, T/C (second compound 31.6 µM, first compound 0.03 µM): 61.1%; viability, T/C (second compound 31.6 µM, first compound 0.0949 µM): 51.2%; viability, T/C (second compound 31.6 µM, first compound 0.3 µM): 31.9%; viability, T/C (second compound 31.6 µM, first compound 0.949 µM): 21.3%; viability, T/C (second compound 31.6 µM, first compound 3 µM): 12.4%; viability, T/C (second compound 100 µM, first compound 0.00949 µM): 91.2%; viability, T/C (second compound 100 µM, first compound 0.03 µM): 60.1%; viability, T/C (second compound 100 µM, first compound 0.0949 µM): 47.5%; viability, T/C (second compound 100 µM, first compound 0.3 µM): 29.5%; viability, T/C (second compound 100 µM, first compound 0.949 µM): 14.4%; viability, T/C (second compound 100 µM, first compound 3 µM): 7.67%

**Q.** How did the IC50 (second compound 30 pM) turn out when `CC(C)n1c(=O)n(C)c2cnc3cc(F)c(-c4ccc(OCCCN5CCCCC5)nc4)cc3c21` + COc1cc2c(cc1O)CCNC21CSC2c3c(OC(C)=O)c(C)c4c(c3C(COC1=O)N1C(O)C3Cc5cc(C)c(OC)c(O)c5C(C21)N3C)OCO4 was run?
**A.** 5850 nM

**Q.** What about the IC50 (second compound 94.9 pM) of the same compound?
**A.** < 31.6 nM

**Q.** What about the IC50 (second compound 0.0003 µM) of the same compound?
**A.** < 31.6 nM

**Q.** What about the IC50 (second compound 0.000949 µM) of the same compound?
**A.** < 31.6 nM

**Q.** What about the IC50 (second compound 0.003 µM) of the same compound?
**A.** < 31.6 nM

**Q.** And the viability, T/C (second compound 30 pM, first compound 0.0316 µM)?
**A.** 76.2%

**Q.** And the viability, T/C (second compound 30 pM, first compound 0.1 µM)?
**A.** 76.6%

**Q.** What about the viability, T/C (second compound 30 pM, first compound 0.316 µM) of the same compound?
**A.** 75.2%

**Q.** And the viability, T/C (second compound 30 pM, first compound 1 µM)?
**A.** 81%

**Q.** What about the viability, T/C (second compound 30 pM, first compound 3.16 µM) of the same compound?
**A.** 79.1%

**Q.** What about the viability, T/C (second compound 30 pM, first compound 10 µM) of the same compound?
**A.** 26%

**Q.** What about the viability, T/C (second compound 94.9 pM, first compound 0.0316 µM) of the same compound?
**A.** 50.3%

**Q.** What about the viability, T/C (second compound 94.9 pM, first compound 0.1 µM) of the same compound?
**A.** 45.4%

**Q.** And the viability, T/C (second compound 94.9 pM, first compound 0.316 µM)?
**A.** 46.6%

**Q.** And the viability, T/C (second compound 94.9 pM, first compound 1 µM)?
**A.** 54.1%

**Q.** And the viability, T/C (second compound 94.9 pM, first compound 3.16 µM)?
**A.** 47.8%

**Q.** And the viability, T/C (second compound 94.9 pM, first compound 10 µM)?
**A.** 28.6%

**Q.** What about the viability, T/C (second compound 0.0003 µM, first compound 0.0316 µM) of the same compound?
**A.** 25.9%

**Q.** What about the viability, T/C (second compound 0.0003 µM, first compound 0.1 µM) of the same compound?
**A.** 25.1%

**Q.** And the viability, T/C (second compound 0.0003 µM, first compound 0.316 µM)?
**A.** 30.5%

**Q.** What about the viability, T/C (second compound 0.0003 µM, first compound 1 µM) of the same compound?
**A.** 31.5%

**Q.** What about the viability, T/C (second compound 0.0003 µM, first compound 3.16 µM) of the same compound?
**A.** 19.7%

**Q.** What about the viability, T/C (second compound 0.0003 µM, first compound 10 µM) of the same compound?
**A.** 13.2%

**Q.** What about the viability, T/C (second compound 0.000949 µM, first compound 0.0316 µM) of the same compound?
**A.** 1.74%

**Q.** What about the viability, T/C (second compound 0.000949 µM, first compound 0.1 µM) of the same compound?
**A.** 1.58%

**Q.** What about the viability, T/C (second compound 0.000949 µM, first compound 0.316 µM) of the same compound?
**A.** 1.8%

**Q.** What about the viability, T/C (second compound 0.000949 µM, first compound 1 µM) of the same compound?
**A.** 1.79%

**Q.** And the viability, T/C (second compound 0.000949 µM, first compound 3.16 µM)?
**A.** 1.02%

**Q.** And the viability, T/C (second compound 0.000949 µM, first compound 10 µM)?
**A.** 1.02%

**Q.** And the viability, T/C (second compound 0.003 µM, first compound 0.0316 µM)?
**A.** 1.5%

**Q.** What about the viability, T/C (second compound 0.003 µM, first compound 0.1 µM) of the same compound?
**A.** 1.42%

**Q.** What about the viability, T/C (second compound 0.003 µM, first compound 0.316 µM) of the same compound?
**A.** 1.59%

**Q.** What about the viability, T/C (second compound 0.003 µM, first compound 1 µM) of the same compound?
**A.** 0.72%

**Q.** What about the viability, T/C (second compound 0.003 µM, first compound 3.16 µM) of the same compound?
**A.** 0.45%

**Q.** And the viability, T/C (second compound 0.003 µM, first compound 10 µM)?
**A.** 0.56%

— PubChem BioAssay AID1845217 (Molecular Pharmacology Branch, DTP, NCI, 2023)
